# Measured values from patent US10849982B2, “C3-carbon linked glutarimide degronimers for target protein degradation” (C4 Therapeutics, Inc., priority 2016, dated 2020).
# Tests used:
# [1] = target: CRBN-DDB1 (Homo sapiens (Human), UniProt Q96SW2); experiment: CRBN-DDB1 fluorescence polarization (FP) binding assay; settings: displacement of Thalidomide-Alexa Fluor or Pomalidomide-fluorescein probe; Table 2
# Procedure: Measuring compound ligand binding to CRBN-DDB1 was carried out using an established sensitive and quantitative in vitro fluorescence polarization (FP) based binding assay. […] Compounds were dispensed from serially diluted DMSO stock into black 384-well compatible fluorescence polarization plates using an Echo acoustic dispenser. Compound binding to CRBN-DDB1 was measured by displacement of either a (−)-Thalidomide-Alexa Fluor® or Pomalidomide-fluorescein conjugated probe dye. […] Matching control wells excluding CRBN-DDB1 were used to correct for background fluorescence. Plates were read on an Envision plate reader with appropriate FP filter sets. The corrected S (perpendicular) and P (parallel) values were used to calculate fluorescence polarization (FP) with the following equation: FP=1000*(S−G*P)/(S+G*P).
# [2] = tested on: MOLT4.1 (WT) cell line; experiment: Cell viability analysis (CellTiter-Glo 2.0), MOLT4.1; format: cell-based; settings: MOLT4.1, 72 hr
# Procedure: (§1) CellTiter-Glo® 2.0 Assay was purchased from Promega (Medison, Wis., USA). MOLT4.1 (WT) cell line was purchased from ATCC (Manassas, Va., USA) and MOLT4.2 (CRBN Knock Out) cell line was generated in house. Cell culture flasks and 384-well microplates were acquired from VWR (Radnor, Pa., USA).
# (§2) MOLT4.1 and MOLT4.2 cell viability was determined based on quantification of ATP using CellTiter-Glo® 2.0 luminescent Assay kit, which signals the presence of metabolically-active cells. Briefly, MOLT4.1 and MOLT4.2 cells were seeded into 384-well plates at a cell density of 750 cells per well, the plates were kept at 37° C. with 5% CO2 overnight. On the following day, test compounds were added to the cells from a top concentration of 1 μM with 10 points, half log titration in duplicates. The cells treated in the absence of the test compound were the negative control and the cells treated in the absence of CellTiter-Glo® 2.0 were the positive control. At the same day of compound treatment, CellTiter-Glo® 2.0 was added to a plate with cells treated in the absence of the test compound to establish Cytostatic control value (Cro). Cells treated with the test compound were incubated for 72 hr. CellTiter-Glo reagent was then added to the cells and Luminescence was acquired on EnVision™ Multilabel Reader (PerkinElmer, Santa Clara, Calif., USA).
# (§3) MOLT4.1 and MOLT4.2 cell viability was determined based on quantification of ATP using CellTiter-Glo® 2.0 luminescent Assay kit, which signals the presence of metabolically-active cells. Briefly, MOLT4.1 and MOLT4.2 cells were seeded into 384-well plates at a cell density of 750 cells per well, the plates were kept at 37° C. with 5% CO2 overnight. On the following day, test compounds were added to the cells from a top concentration of 1 μM with 10 points, half log titration in duplicates. […] CellTiter-Glo reagent was then added to the cells and Luminescence was acquired on EnVision™ Multilabel Reader (PerkinElmer, Santa Clara, Calif., USA).
# [3] = tested on: MOLT4.2 (CRBN Knock Out) cell line; experiment: Cell viability analysis (CellTiter-Glo 2.0), MOLT4.2; format: cell-based; settings: MOLT4.2, 72 hr
# Procedure: as §1, §2, §3
# [4] = target: BRD4 BD1 (Homo sapiens (Human), UniProt O60885); experiment: HiBit assay, BRD4 BD1 degradation analysis; format: cell-based; settings: BRD4_BD1, 293T.29 cells, 3 hr
# Procedure: DMEM no-phenol red medium and fetal bovine serum (FBS) were purchased from Gibco (Grand Island, N.Y., USA). Nano-Glo® HiBiT Lytic Assay System was purchased from Promega (Medison, Wis., USA). 293T.29 (HiBiT-BRD4 BD1) cell line was generated in house, ectopically expressing BRD4 BD1 domain with HiBiT fusion tag. Cell culture flasks and 384-well microplates were acquired from VWR (Radnor, Pa., USA).
# BRD4 BD1 degradation was determined based on quantification of luminescent signal using Nano-Glo® HiBiT Lytic Assay kit. Test compounds were added to the 384-well plate from a top concentration of 1 μM with 11 points, half log titration in quadruplicates. 293T.29 cells were added into 384-well plates at a cell density of 15000 cells per well. The plates were kept at 37° C. with 5% CO2 for 3 hours. The cells treated in the absence of the test compound were the negative control and the cells treated with 30 nM of a known BRD4 degrader were the positive control. After 3-hour incubation, Nano-Glo® HiBiT Lytic Assay reagents were added to the cells. Luminescence was acquired on EnVision™ Multilabel Reader (PerkinElmer, Santa Clara, Calif., USA).
# Chain of CRBN-DDB1 (Q96SW2 whole entry): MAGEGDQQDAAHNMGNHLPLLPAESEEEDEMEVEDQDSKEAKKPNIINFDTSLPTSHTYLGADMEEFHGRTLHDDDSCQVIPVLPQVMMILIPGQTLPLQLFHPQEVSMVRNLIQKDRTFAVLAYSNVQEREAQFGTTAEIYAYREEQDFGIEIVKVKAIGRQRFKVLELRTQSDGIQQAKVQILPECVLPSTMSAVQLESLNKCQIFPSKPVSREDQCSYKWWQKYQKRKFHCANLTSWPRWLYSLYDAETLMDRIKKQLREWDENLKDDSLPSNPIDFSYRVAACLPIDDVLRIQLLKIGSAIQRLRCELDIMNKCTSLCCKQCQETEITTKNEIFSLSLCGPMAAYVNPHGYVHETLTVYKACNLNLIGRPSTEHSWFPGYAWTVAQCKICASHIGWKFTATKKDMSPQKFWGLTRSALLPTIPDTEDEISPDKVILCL
# Chain of CRBN-DDB1 (Q16531 whole entry partner): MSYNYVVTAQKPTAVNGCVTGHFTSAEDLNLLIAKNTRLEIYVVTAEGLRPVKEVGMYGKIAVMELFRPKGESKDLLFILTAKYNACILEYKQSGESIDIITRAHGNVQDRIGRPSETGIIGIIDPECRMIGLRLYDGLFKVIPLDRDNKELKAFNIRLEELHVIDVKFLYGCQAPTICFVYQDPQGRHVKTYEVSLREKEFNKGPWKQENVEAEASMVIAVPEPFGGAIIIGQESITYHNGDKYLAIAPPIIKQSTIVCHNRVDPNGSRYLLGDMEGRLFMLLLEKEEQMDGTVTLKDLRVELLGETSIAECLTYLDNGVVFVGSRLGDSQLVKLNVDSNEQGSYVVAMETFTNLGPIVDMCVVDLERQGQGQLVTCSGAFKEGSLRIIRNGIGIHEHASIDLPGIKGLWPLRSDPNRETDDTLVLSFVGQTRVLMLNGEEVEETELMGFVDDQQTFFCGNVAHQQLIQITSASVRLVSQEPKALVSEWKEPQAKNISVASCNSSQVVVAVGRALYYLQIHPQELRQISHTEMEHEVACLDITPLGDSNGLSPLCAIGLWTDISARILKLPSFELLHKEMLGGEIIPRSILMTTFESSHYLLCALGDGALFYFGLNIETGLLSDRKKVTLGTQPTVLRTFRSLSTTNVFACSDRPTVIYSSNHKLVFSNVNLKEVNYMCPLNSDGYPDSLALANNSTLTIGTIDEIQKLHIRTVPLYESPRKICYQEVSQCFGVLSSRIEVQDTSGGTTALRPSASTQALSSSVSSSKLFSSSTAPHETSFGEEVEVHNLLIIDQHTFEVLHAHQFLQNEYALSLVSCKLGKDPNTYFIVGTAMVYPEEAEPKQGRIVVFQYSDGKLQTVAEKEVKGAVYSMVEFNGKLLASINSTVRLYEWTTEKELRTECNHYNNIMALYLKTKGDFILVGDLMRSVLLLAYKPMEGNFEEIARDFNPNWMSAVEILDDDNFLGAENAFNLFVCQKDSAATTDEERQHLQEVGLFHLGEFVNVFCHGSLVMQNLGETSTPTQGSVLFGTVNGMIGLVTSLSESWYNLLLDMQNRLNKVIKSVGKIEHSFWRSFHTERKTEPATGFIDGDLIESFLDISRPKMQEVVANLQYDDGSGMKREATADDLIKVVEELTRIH
structure (smiles),measurement,setting,value
"Cc1sc2c(c1C)C(c1ccc(Cl)cc1)=N[C@@H](CC(=O)NCCCCCCCC(=O)Nc1ccc3c(C4CCC(=O)NC4=O)nn(C)c3c1)c1nnc(C)n1-2 (stereo partly drawn) [Degronimer 1, 8-(2-((S)-4-(4-chlorophenyl)-2,3,9-trimethyl-6H-thieno[3,2-f][1,2,4]triazolo[4,3-a][1,4]diazepin-6-yl)acetamido)-N-(3-(2,6-dioxopiperidin-3-yl)-1-methyl-1H-indazol-6-yl)octanamide]",Kd,[1],< 10000 nM
same,Emax,[2],0 to 50%
same,GI50,[2],100 to 1000 nM
same,LD50 (nM),[2],+ (>1 μM = +)
same,Emax,[3],> 50%
same,GI50,[3],> 1000 nM
same,LD50 (nM),[3],+ (>1 μM = +)
same,DC50,[4],> 830 nM
